“And” between values parts separate entries of the source, which are not always exact repeats. Identical values can stand only once. Toxic doses and inconclusive results are not listed. Rule for the calls: active = survival T/C of 150% or more; inactive = T/C below 125% in these data.
System: CD2F1 mice, L1210 leukemia ip, survival T/C
Assay: NCI In Vivo Anticancer Drug Screen. Data for tumor model L1210 Leukemia (intraperitoneal) in CD2F1 (CDF1) mice
Conditions: higher = longer survival
Summary of the method: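 Read-out first: treated-group measurement over vehicle-control measurement, expressed as a ratio. Animals bore a transplanted tumor line and were dosed with compound or vehicle.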

[1] = endpoint: mean survival time, dose: 50.0 mg/kg/injection, schedule: Q01DX009 (ip), vehicle: saline with Tween-80
[2] = endpoint: mean survival time, dose: 100.0 mg/kg/injection, schedule: Q01DX009 (ip), vehicle: saline with Tween-80
[3] = endpoint: mean survival time, dose: 200.0 mg/kg/injection, schedule: Q01DX009 (ip), vehicle: saline with Tween-80
[4] = endpoint: mean survival time, dose: 400.0 mg/kg/injection, schedule: Q01DX009 (ip), vehicle: saline with Tween-80
[5] = endpoint: mean survival time, dose: 100.0 mg/kg/injection, schedule: Q04DX003 (ip), vehicle: saline with Tween-80
[6] = endpoint: mean survival time, dose: 200.0 mg/kg/injection, schedule: Q04DX003 (ip), vehicle: saline with Tween-80
[7] = endpoint: mean survival time, dose: 100.0 mg/kg/injection, schedule: Q01DX001 (ip), vehicle: saline
[8] = endpoint: mean survival time, dose: 200.0 mg/kg/injection, schedule: Q01DX001 (ip), vehicle: saline
[9] = endpoint: mean survival time, dose: 100.0 mg/kg/injection, schedule: Q04DX003 (ip), vehicle: saline
[10] = endpoint: mean survival time, dose: 400.0 mg/kg/injection, schedule: Q04DX003 (ip), vehicle: saline with Tween-80

Measured: T/C

COc1cc(OC)c(NC(=O)OCCON2CCNC2=O)cc1Cl
inactive: [1] 90 % of control | [2] 90 % of control | [3] 97 % of control

COc1ccc(/C=C/c2ccc3ccccc3[n+]2C)c(OC)c1OC
inactive: endpoint: mean survival time, dose: 5.0 mg/kg/injection, schedule: Q01DX009 (ip), vehicle: saline 98 % of control | endpoint: mean survival time, dose: 10.0 mg/kg/injection, schedule: Q01DX009 (ip), vehicle: saline 86 % of control

CC(=O)Nc1cccc(N(CCOS(C)(=O)=O)CCOS(C)(=O)=O)c1
inactive: endpoint: mean survival time, dose: 0.5 mg/kg/injection, schedule: Q01DX009 (ip), vehicle: saline 122 % of control

CC1=C(c2ccccc2)OS(=O)(=O)NC1=O
inactive: endpoint: mean survival time, dose: 12.5 mg/kg/injection, schedule: Q01DX009 (ip), vehicle: water 93 % of control | endpoint: mean survival time, dose: 25.0 mg/kg/injection, schedule: Q01DX009 (ip), vehicle: water 91 % of control | endpoint: mean survival time, dose: 50.0 mg/kg/injection, schedule: Q01DX009 (ip), vehicle: water 93 % of control | endpoint: mean survival time, dose: 100.0 mg/kg/injection, schedule: Q01DX009 (ip), vehicle: water 93 % of control | endpoint: mean survival time, dose: 200.0 mg/kg/injection, schedule: Q01DX009 (ip), vehicle: water 88 % of control

CCCCCCCCCC(=O)N(C)C
inactive: endpoint: mean survival time, dose: 75.0 mg/kg/injection, schedule: Q01DX001 (ip), vehicle: saline 98 % of control | endpoint: mean survival time, dose: 150.0 mg/kg/injection, schedule: Q01DX001 (ip), vehicle: saline 104 % of control

O=S1(=O)CC=CC1
inactive: [2] 98 % of control | endpoint: mean survival time, dose: 100.0 mg/kg/injection, schedule: Q04DX003 (ip), vehicle: saline sonified 103 % of control | [3] 101 % of control | endpoint: mean survival time, dose: 200.0 mg/kg/injection, schedule: Q04DX003 (ip), vehicle: saline sonified 106 % of control | [4] 101 % of control | endpoint: mean survival time, dose: 400.0 mg/kg/injection, schedule: Q04DX003 (ip), vehicle: saline sonified 95 % of control

CC(=O)c1cc(C)[nH]c1C
inactive: [1] 101 % of control | [2] 100 % of control | [5] 102 % of control | [3] 103 % of control | [6] 96 % of control | endpoint: median survival time, dose: 100.0 mg/kg/injection, schedule: Q01DX001 (ip), vehicle: saline with Tween-80 100 % of control | endpoint: median survival time, dose: 200.0 mg/kg/injection, schedule: Q01DX001 (ip), vehicle: saline with Tween-80 100 % of control

CSc1nc(NC2OCC(O)C(O)C2O)cc(=O)n1C (stereo not drawn)
inactive: endpoint: median survival time, dose: 12.5 mg/kg/injection, schedule: Q01DX005 (ip), vehicle: saline 98 % of control | endpoint: median survival time, dose: 25.0 mg/kg/injection, schedule: Q01DX005 (ip), vehicle: saline 102 % of control | endpoint: median survival time, dose: 50.0 mg/kg/injection, schedule: Q01DX005 (ip), vehicle: saline 102 % of control | endpoint: median survival time, dose: 100.0 mg/kg/injection, schedule: Q01DX005 (ip), vehicle: saline 105 % of control | endpoint: median survival time, dose: 200.0 mg/kg/injection, schedule: Q01DX005 (ip), vehicle: saline 100 % of control

Cc1ccc(OCCOc2ccc([N+](=O)[O-])cc2)cc1
inactive: endpoint: mean survival time, dose: 200.0 mg/kg/injection, schedule: Q04DX003 (ip), vehicle: other 92 % of control | endpoint: mean survival time, dose: 400.0 mg/kg/injection, schedule: Q04DX003 (ip), vehicle: other 90 % of control

C=C(C)/C([O-])=N/[N+](C)(C)CC(O)CCCCCCCCCCCC (stereo not drawn)
inactive: endpoint: mean survival time, dose: 25.0 mg/kg/injection, schedule: Q01DX001 (ip), vehicle: saline 96 % of control and 97 % of control | endpoint: mean survival time, dose: 50.0 mg/kg/injection, schedule: Q01DX001 (ip), vehicle: saline 97 % of control and 100 % of control | [1] 94 % of control | [7] 96 % of control and 97 % of control | [2] 94 % of control | [8] 93 % of control and 100 % of control | [3] 97 % of control

NOCc1nnc(Nc2ccccc2)s1
inactive: [7] 100 % of control | [8] 97 % of control | endpoint: mean survival time, dose: 400.0 mg/kg/injection, schedule: Q01DX001 (ip), vehicle: saline 96 % of control

Cc1ccc(NC(=S)N2CCCC2)cc1
inactive: [2] 97 % of control | [3] 91 % of control | [4] 95 % of control

CC1=Nc2cc(C)c(C)cc2N2C1=CC1=C(C(=O)c3cc4ccccc4cc3C1=O)C2C (stereo not drawn)
inactive: endpoint: mean survival time, dose: 25.0 mg/kg/injection, schedule: Q04DX003 (ip), vehicle: saline with Tween-80 97 % of control | endpoint: mean survival time, dose: 50.0 mg/kg/injection, schedule: Q04DX003 (ip), vehicle: saline with Tween-80 108 % of control | [9] 110 % of control | endpoint: mean survival time, dose: 200.0 mg/kg/injection, schedule: Q04DX003 (ip), vehicle: saline 107 % of control

CN1CC=C(N2CCOCC2)CC1
inactive: endpoint: mean survival time, dose: 25.0 mg/kg/injection, schedule: Q04DX003 (ip), vehicle: saline 109 % of control | endpoint: mean survival time, dose: 50.0 mg/kg/injection, schedule: Q04DX003 (ip), vehicle: saline 103 % of control | [9] 103 % of control and 109 % of control

CC(=O)CC(=O)c1ccccc1.CC(=O)CC(=O)c1ccccc1.[Pd]
inactive: endpoint: mean survival time, dose: 3.13 mg/kg/injection, schedule: Q04DX003 (ip), vehicle: distilled water + Tween-80 98 % of control | endpoint: mean survival time, dose: 6.25 mg/kg/injection, schedule: Q04DX003 (ip), vehicle: distilled water + Tween-80 89 % of control | endpoint: mean survival time, dose: 12.5 mg/kg/injection, schedule: Q04DX003 (ip), vehicle: distilled water + Tween-80 100 % of control | endpoint: mean survival time, dose: 25.0 mg/kg/injection, schedule: Q04DX003 (ip), vehicle: distilled water + Tween-80 86 % of control | endpoint: mean survival time, dose: 50.0 mg/kg/injection, schedule: Q04DX003 (ip), vehicle: distilled water + Tween-80 87 % of control | endpoint: mean survival time, dose: 100.0 mg/kg/injection, schedule: Q04DX003 (ip), vehicle: distilled water + Tween-80 89 % of control | endpoint: mean survival time, dose: 200.0 mg/kg/injection, schedule: Q04DX003 (ip), vehicle: distilled water + Tween-80 93 % of control

Oc1ccc(C=NCCN=Cc2ccc(O)cc2O)c(O)c1
inactive: endpoint: mean survival time, dose: 8.0 mg/kg/injection, schedule: Q01DX009 (ip), vehicle: saline with Tween-80 98 % of control | endpoint: mean survival time, dose: 12.0 mg/kg/injection, schedule: Q01DX009 (ip), vehicle: saline with Tween-80 87 % of control | endpoint: mean survival time, dose: 18.0 mg/kg/injection, schedule: Q01DX009 (ip), vehicle: saline with Tween-80 92 % of control | endpoint: mean survival time, dose: 25.0 mg/kg/injection, schedule: Q01DX009 (ip), vehicle: saline with Tween-80 114 % of control and 96 % of control | [2] 87 % of control | [5] 87 % of control | [10] 88 % of control

C=CC1(O)CCCCC1
inactive: endpoint: mean survival time, dose: 100.0 mg/kg/injection, schedule: Q01DX001 (ip), vehicle: saline with Tween-80 100 % of control | endpoint: mean survival time, dose: 200.0 mg/kg/injection, schedule: Q01DX001 (ip), vehicle: saline with Tween-80 100 % of control | endpoint: mean survival time, dose: 400.0 mg/kg/injection, schedule: Q01DX001 (ip), vehicle: saline with Tween-80 97 % of control

COC(=O)C1C2CC(C(Br)C2Br)C1C(=O)O (stereo not drawn)
inactive: [2] 96 % of control | [5] 96 % of control | [3] 98 % of control | [6] 96 % of control and 94 % of control | [4] 97 % of control | [10] 88 % of control and 98 % of control

COC(=O)c1cc2ccccc2cc1OC
inactive: [2] 102 % of control | [5] 95 % of control | [3] 109 % of control | [6] 97 % of control | [4] 101 % of control | [10] 97 % of control

Nc1cc2[nH]c(=O)c3ccccc3c2cc1Br
inactive: endpoint: mean survival time, dose: 100.0 mg/kg/injection, schedule: Q01DX001 (ip), vehicle: carboxymethylcellulose (CMC) 103 % of control | endpoint: mean survival time, dose: 200.0 mg/kg/injection, schedule: Q01DX001 (ip), vehicle: carboxymethylcellulose (CMC) 97 % of control | endpoint: mean survival time, dose: 400.0 mg/kg/injection, schedule: Q01DX001 (ip), vehicle: carboxymethylcellulose (CMC) 100 % of control

N=C(N)[Se]
inactive: [5] 95 % of control | [6] 101 % of control | [10] 95 % of control

— PubChem BioAssay AID256 (DTP/NCI, 2004)
